Assay results reported in patent US20090148850A1, “Methods for identifying modulators of P2RY14” (priority 2007, published 2009).

Tests used:
[1] = target: T1, mouse P2RY14 (Mus musculus, UniProt Q9ESG6); assay: FLIPR whole cell Ca2+ agonist assay, HEK cells expressing mouse P2RY14 and Gqi5; type: cell-based
T1 construct: expressed in transfected cells
T1 sequence (Q9ESG6 1-338): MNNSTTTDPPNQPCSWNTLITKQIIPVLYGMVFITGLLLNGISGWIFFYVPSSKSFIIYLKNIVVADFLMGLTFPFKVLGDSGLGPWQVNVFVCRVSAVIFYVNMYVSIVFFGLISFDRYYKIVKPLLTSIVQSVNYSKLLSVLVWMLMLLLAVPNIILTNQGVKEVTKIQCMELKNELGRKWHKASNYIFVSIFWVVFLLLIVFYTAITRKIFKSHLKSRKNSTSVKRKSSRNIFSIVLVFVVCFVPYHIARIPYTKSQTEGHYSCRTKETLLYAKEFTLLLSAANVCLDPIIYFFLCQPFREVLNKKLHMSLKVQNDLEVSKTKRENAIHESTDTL
From the text: (§1) Stable HEK clonal cell lines expressing P2RY14 and the chimeric G protein Gqi5 were constructed. The chimeric Gqi5 forces the coupling of P2RY14 through the Gq (calcium) pathway and allows for monitoring of calcium signaling using a calcium binding fluorescent dye and a FLIPR (fluorometric imaging plate reader, MDS Sciex). Vector pCEP4 comprising the chimeric Gqi5 was obtained from Molecular Devices, Sunnyvale, Calif. (Cat. No. RD-PGQI5).
The nucleic acid encoding the mouse P2RY14 was under the control of the CMV promoter.
(§2) Cells were grown in DMEM medium containing 25 mM HEPES, pH 7.4 and 10% FBS, 50 units/ml penicillin/50 μg/ml streptomycin, 2 mM glutamine and 1 mM sodium pyruvate at 37° C. in humidified air containing 5% CO2. Two days post-transfection, cells were grown under selection in the DMEM medium as indicated above and supplemented with 200 μg/ml Hygromycin B and 250 μg/ml geneticin.
(§3) Cells were incubated overnight at 37° C. and 5% CO2 to form a monolayer. On the following day, 30 μl of fluorescent no-wash dye was added to the cell monolayer and the plate was incubated for 60 minutes at 37° C., 5% CO2.
(§4) For agonist assays, 6.12 μl of 10× agonist solution was added to the cell/dye incubation and Ca^2+ signaling was monitored by FLIPR. For antagonist assays, 250 nl of compound in 100% DMSO was added to cell/dye mixture; following a 20 minute incubation at room temperature, 6.12 μl of 10× agonist solution at EC80 in HBSS containing 20 mM Hepes was added to cells and Ca^2+ signaling was monitored by FLIPR. Quantitation of the % stimulation or inhibition of Ca^2+ signaling by agonist or antagonist, respectively, was calculated using the Max-Min fluorescent signal detected.

[2] = test system: simian (chimpanzee) P2RY14; assay: FLIPR whole cell Ca2+ agonist assay, HEK cells expressing simian (chimpanzee) P2RY14 and Gqi5; type: cell-based
From the text: as §1
The simian (chimpanzee) P2RY14 nucleic acid fragment was synthesized based upon the Ensembl Gene ID ENSPTRG00000030093 by Bio S & T, Montreal, Quebec, Canada, to be flanked with KpnI and NotI restriction enzyme sites. […] The DNA fragment was digested with KpnI and NotI and then cloned into a pcDEF3 vector previously digested with KpnI and NotI to place the DNA fragment in the proper orientation downstream of the human EF-1a promoter. The nucleic acid encoding the simian P2RY14 was under the control of the human EF-1a promoter.
as §2, §3, §4

[3] = test system: simian P2RY14; assay: Membrane filtration binding assay, simian P2RY14; parameters: species or system chimpanzee; settings: simian P2RY14 membranes
Procedure: Membrane preparations were made by N2 cavitation using a Parr unit. […] Cell were Dounce homogenized (size B, 10 strokes) and then added to the cavitation unit. Pressure was adjusted to 800 psi and cells were left under pressure for 30 minutes. Broken cells were released drop by drop and spun at 1000 g for 10 minutes. Supernatent was spun at 160,000 g (rotor type 60 Ti, 40000 rpm for 30 min). Pellet was resuspended in 10 mM HEPES/KOH pH 7.4, 1 mM EDTA in ⅕ the original volume, dounce homogenized (size A, 10 strokes), aliquoted, and frozen at −80° C.
Binding assays were performed in 10 mM Hepes pH 7.4 (KOH), 5 mM MnCl2, 5 mM MgCl2 buffer. Membranes (10 μg/well for human P2RY14 and 30 μg/well for simian P2RY14) were incubated with 10 nM [5.6-^3H] Uridine 5′-triphosphate (UTP), ammonium salt from Amersham Biosciences (# TRK412) in presence of compounds diluted in DMSO (2% final in assay), in a total volume of 100 μl. 50 minutes (human P2RY14) or 60 minutes (simian) P2RY14) incubations were performed at room temperature with shaking. […] To examine the stability of [^3H]-UTP in the membrane filtration binding assay, 100 ul aliquots of the reaction mixture were extracted at 2, 10, 20, 40, 60 and 90 minutes with 100 uL of cold 80 mM EDTA solution (pH 8) and 200 uL of cold Acetonitrile. After mixing, proteins were precipitated by centrifugation at 13000 rpm for 10 minutes at 4° C. […] After 0.5 min at 10:90 50 mM KH2PO4/750 mM KH2PO4, a gradient was applied in order to increase to 100% 750 mM KH2PO4 at 5 min, after which this composition was maintained for an additional 3 min. Samples were kept at 4° C. prior to HPLC analysis

[4] = target: T2, P2RY14 (Homo sapiens, UniProt Q15391); assay: CellKey System live cell functional assay, human P2RY14; type: cell-based; parameters: expressed in transfected cells; settings: HEK cells expressing human P2RY14 and Gqi5
T2 sequence (Q15391 1-338): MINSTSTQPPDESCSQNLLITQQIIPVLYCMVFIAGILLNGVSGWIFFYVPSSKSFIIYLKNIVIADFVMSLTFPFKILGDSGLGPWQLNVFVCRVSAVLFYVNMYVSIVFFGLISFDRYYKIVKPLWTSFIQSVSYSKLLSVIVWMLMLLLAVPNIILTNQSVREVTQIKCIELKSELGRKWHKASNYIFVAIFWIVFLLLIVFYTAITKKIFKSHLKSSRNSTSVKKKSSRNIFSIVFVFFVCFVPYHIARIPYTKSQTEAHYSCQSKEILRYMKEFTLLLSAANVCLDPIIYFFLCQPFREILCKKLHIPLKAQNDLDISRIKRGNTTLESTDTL
Procedure: The Cellkey System™ (MDS Sciex), a novel, live cell, label-free, real-time technology, was used to examine P2RY14 activation following agonist stimulation. The CellKey System™ is based on cellular dielectric spectroscopy (CDS) and monitors changes in impedance of the applied electrical current through the cell monolayer upon receptor activation.
On the following day, growth medium was removed from the cell monolayer and replaced with 135 μl of HBSS pH 7.4 containing 20 mM Hepes for a 30 minutes pre-incubation period at room temperature. Baseline measurements were made for 5 minutes at 28° C. prior to ligand addition. For agonist assays, 15 μl of 10× agonist diluted in HBSS pH 7.4 containing 20 mM HEPES was added to the cell monolayer simultaneously using the 96 multichannel head from the CellKey™ System. Cellular response was monitored for 10 minutes to assess cellular response after ligand addition.

## O=c1ccn([C@@H]2O[C@H](COP(=O)(O)O)[C@@H](O)[C@H]2O)c(=O)[nH]1 [UMP]
[1]
  activation of P2RY14 (Ca2+ signaling): activated
[2]
  activation of P2RY14 (Ca2+ signaling): activated
[3]
  competition for [3H]-UTP/[3H]-UDP binding: able to successfully compete
[3]; 10 nM radioligand, read-out: Ki, competition for [3H]-UTP/[3H]-UDP binding
  Ki: ~1000 nM
[4]
  P2RY14 signaling (impedance, CellKey): mediated signaling
